Details in all cases: stereoisomer not certain
Data set [1] is described as follows: RP, Thermo Scientific Hypercarb, 150 × 2.1 mm, 5 µm, 0.1 mL/min, estimated dead time 3.3 min; A: water + 0.1% formic acid, pH 3; B: methanol + 0.1% formic acid, pH 3; gradient (min/%B) 0/5 5/5 20/100 35/100 35.1/5 45/5.
Data set [2] is described as follows: RP, Waters ACQUITY UPLC BEH C18, 100 × 2.1 mm, 1.7 µm, 0.2 mL/min, estimated dead time 1.1 min; A: water + 0.025% formic acid + 20 mM ammonium acetate + 0.055% ammonium hydroxide, pH 7; B: methanol; gradient (min/%B) 0/5 5/5 25/100 30/100 30.1/5 35/5.
A short description of data set [3]: HILIC, Merck SeQuant ZIC-HILIC, 150 × 2.1 mm, 5 µm, 0.75 mL/min, estimated dead time 0.44 min; A: water + 0.1% acetic acid + 10 mM ammonium acetate, pH 4; B: 5% water + 95% acetonitrile + 0.1% acetic acid + 10 mM ammonium acetate, pH 4; gradient (min/%B) 0/95 5/95 20/57 25/57 30/95 40/95.
Data set [4] in a line: RP, Waters ACQUITY UPLC BEH C18, 100 × 2.1 mm, 1.7 µm, 0.1 mL/min, estimated dead time 2.2 min; A: water + 0.1% formic acid, pH 3; B: methanol + 0.1% formic acid, pH 3; gradient (min/%B) 0/5 5/5 25/100 30/100 30.1/5 35/5.
Data set [5] can be described thus: RP, Waters CORTECS T3, 100 × 2.1 mm, 2.7 µm, 0.3 mL/min, estimated dead time 0.73 min; A: water + 0.1% formic acid, pH 3; B: methanol + 0.1% formic acid, pH 3; gradient (min/%B) 0/0 1/0 6/5 30/100 35/100 35.1/0 40/0.
Data set [6] in a line: RP, Waters CORTECS T3, 100 × 2.1 mm, 2.7 µm, 0.3 mL/min, estimated dead time 0.73 min; A: water + 0.1% formic acid, pH 3; B: methanol + 0.1% formic acid, pH 3; gradient (min/%B) 0/0 5/0 25/100 30/100 30.1/0 35/0.
Data set [7] can be described thus: RP, Waters CORTECS T3, 100 × 2.1 mm, 2.7 µm, 0.25 mL/min, estimated dead time 0.88 min; A: water + 0.1% formic acid, pH 3; B: methanol + 0.1% formic acid, pH 3; gradient (min/%B) 0/0 1/0 6/5 30/100 35/100 35.1/0 40/0.
The nature of data set [8]: RP, Waters CORTECS T3, 100 × 2.1 mm, 2.7 µm, 0.15 mL/min, estimated dead time 1.5 min; A: water + 0.1% formic acid, pH 3; B: methanol + 0.1% formic acid, pH 3; gradient (min/%B) 0/0 1/0 6/5 30/100 35/100 35.1/0 40/0.
Data set [9] can be described thus: RP, Waters CORTECS T3, 100 × 2.1 mm, 2.7 µm, 0.3 mL/min, estimated dead time 0.73 min; A: water + 0.1% formic acid, pH 3; B: methanol + 0.1% formic acid, pH 3; gradient (min/%B) 0/5 5/5 25/100 30/100 30.1/5 35/5.
Data set [10] can be described thus: RP, Waters ACQUITY UPLC BEH C18, 100 × 2.1 mm, 1.7 µm, 0.1 mL/min, estimated dead time 2.2 min; A: water + 0.045% formic acid + 0.11% ammonium hydroxide, pH 7; B: methanol; gradient (min/%B) 0/5 5/5 25/95 25.1/100 35/100 35.1/5 45/5.
Data set [11] is described as follows: RP, Waters CORTECS T3, 100 × 2.1 mm, 2.7 µm, 0.2 mL/min, estimated dead time 1.1 min; A: water + 0.045% formic acid + 0.11% ammonium hydroxide, pH 7; B: methanol; gradient (min/%B) 0/5 5/5 25/95 25.1/100 35/100 35.1/5 45/5.
Data set [12] in a line: RP, Waters CORTECS T3, 100 × 2.1 mm, 2.7 µm, 0.2 mL/min, estimated dead time 1.1 min; A: water + 0.1% formic acid, pH 3; B: methanol + 0.1% formic acid, pH 3; gradient (min/%B) 0/5 5/5 25/95 25.1/100 35/100 35.1/5 45/5.
Data set [13] in a line: RP, Waters CORTECS T3, 100 × 2.1 mm, 2.7 µm, 0.2 mL/min, estimated dead time 1.1 min; A: water + 0.1% formic acid, pH 3; B: methanol + 0.1% formic acid, pH 3; gradient (min/%B) 0/0 1/0 6/5 30/100 35/100 35.1/0 40/0.
A short description of data set [14]: RP, Waters CORTECS T3, 100 × 2.1 mm, 2.7 µm, 0.3 mL/min, estimated dead time 0.73 min; A: water + 0.1% formic acid, pH 3; B: methanol + 0.1% formic acid, pH 3; gradient (min/%B) 0/5 5/5 25/95 25.1/100 35/100 35.1/5 45/5.

On to `NC1(C(=O)O)CC1` [1-AMINOCYCLOPROPANE-1-CARBOXYLATE], for which the LC retention time in data set [1] was 4.48 min.
For `C[n+]1cccc(C(N)=O)c1` [1-METHYLNICOTINAMIDE], the LC retention time in data set [2] was 1.35 min; in [1], 4.94 min.
For the compound `O=C(O)CCCC(=O)C(=O)O` [2-OXOADIPATE], the LC retention time in data set [3] was 12.9 min.
Take `OCC(O)c1ccc(O)c(O)c1` (stereo unspecified) [3,4-DIHYDROXYPHENYL GLYCOL]: the LC retention time in data set [3] is 4.12 min.
`Nc1c(O)cccc1C(=O)CC(N)C(=O)O` (stereo unspecified) [3-HYDROXYKYNURENINE]: the LC retention time in data set [4] is 2.83 min.
Regarding `NC(N)=NCCCC(=O)O` [4-GUANIDINOBUTANOATE], the LC retention time in [5] was 0.9 min; in [6] it was 0.91 min; in data set [2], 1.39 min; in data set [7] it was 1.06 min; in [4], 2.71 min; in data set [1] it was 13 min. Also, the LC retention time in data set [8] was 1.8 min.
As for `O=C1CCNC(=O)N1` [5,6-DIHYDROURACIL], the LC retention time in [4] was 2.76 min.
Consider `N[C@@H](Cc1c[nH]c2ccc(O)cc12)C(=O)O` [5-HYDROXY-L-TRYPTOPHAN], for which the LC retention time in [9] was 2.7 min.
Consider `NCCCNCCCN` [BIS(3-AMINOPROPYL)AMINE], for which the LC retention time in [1] was 41 min.
On to `C[N+](C)(C)CCO` [CHOLINE], for which, in [2], the LC retention time was 1.35 min.
Turning to `COC1=C(OC)C(=O)C(CC=C(C)CCC=C(C)CCC=C(C)CCC=C(C)CCC=C(C)CCC=C(C)CCC=C(C)CCC=C(C)CCC=C(C)CCC=C(C)C)=C(C)C1=O` [COENZYME Q10], the LC retention time in data set [10] was 37.8 min.
Regarding `CN(CC(=O)O)C(=N)N` [CREATINE], the LC retention time in [2] was 1.35 min.
As to `CN1CC(=O)NC1=N` [CREATININE], the LC retention time is 1.39 min in [2], 1.06 min in data set [7] and 4.94 min in data set [1].
Regarding `Nc1ccnc(=O)[nH]1` [CYTOSINE], the LC retention time in [5] is 0.9 min; in data set [2] it was 1.44 min; in data set [7], 1.06 min; in data set [1], 13.9 min.
In the case of `OCCNCCO` [DIETHANOLAMINE], the LC retention time in data set [2] is 1.35 min.
As to `O=C(O)C(O)c1ccc(O)c(O)c1` (stereo unspecified) [DIHYDROXYMANDELIC ACID], the LC retention time in data set [3] was 4.4 min.
`NC(N)=NCC(=O)O` [GUANIDINOACETATE]: in [1], the LC retention time was 5.04 min.
Consider `O=C(O)CNC(=O)c1ccccc1` [HIPPURATE], for which the LC retention time in data set [4] is 14.1 min.
For `NC(CCS)C(=O)O` (stereo unspecified) [HOMOCYSTEINE], the LC retention time in data set [1] is 14 min.
Same read-out and setting: under `NC(N)=NCCC[C@H](N)C(=O)O` [L-ARGININE] stands 4.77 min.
Regarding `N[C@@H](CCSC[C@H](N)C(=O)O)C(=O)O` [L-CYSTATHIONINE], in data set [1], the LC retention time was 4.86 min.
On to `N[C@@H](CSSC[C@H](N)C(=O)O)C(=O)O` [L-CYSTINE], for which the LC retention time in data set [1] was 4.99 min.
On the same count and under the same terms, as for `CS(=N)(=O)CCC(N)C(=O)O` [L-METHIONINE SULFOXIMINE], the figure is 4.77 min.
On to `CC(C)=CCCC(C)C1CCC2(C)C3=C(CCC12C)C1(C)CCC(O)C(C)(C)C1CC3` (stereo unspecified) [LANOSTEROL], for which, in data set [2], the LC retention time is 26.4 min.
As to `NC(=O)CCCCC1CCSS1` (stereo unspecified) [LIPOAMIDE], the LC retention time in data set [10] was 20 min; in data set [11], 16 min.
Consider `NC(CCCC(N)C(=O)O)C(=O)O` (stereo unspecified) [LL-2,6-DIAMINOHEPTANEDIOATE], for which the figures for the LC retention time in data set [12] and in data set [1] were 2.41 min and 4.49 min, respectively.
`CC(C)=CCCC(C)=CCCC(C)=CCCC(C)=CCC1=C(C)C(=O)c2ccccc2C1=O` [MENAQUINONE]: the LC retention time in data set [10] was 34.6 min.
On to `CN=C(N)N` [METHYLGUANIDINE], for which the LC retention time is 1.39 min in data set [2], 1.06 min in data set [7] and 4.05 min in data set [1].
For the compound `Cn1cncc1CC(N)C(=O)O` [N(PAI)-METHYL-L-HISTIDINE], the LC retention time is 1.88 min in [2] and 4.77 min in data set [1].
With `CC(=O)NC1C(O)CC(O)(C(=O)O)OC1C(O)C(O)CO` (stereo unspecified) [N-ACETYLNEURAMINATE], the LC retention time in data set [3] is 12.9 min.
Turning to `CC(=O)NCCCCN` [N-ACETYLPUTRESCINE], the figures for the LC retention time in data set [2], in data set [4] and in [8] were 1.39 min, 2.71 min and 1.8 min, respectively.
As for `NC(=O)c1ccc[n+](C2OC(COP(=O)([O-])O)C(O)C2O)c1` (stereo unspecified) [NICOTINAMIDE MONONUCLEOTIDE], the LC retention time in [4] is 2.69 min; in data set [1] it was 26.7 min.
As to `N[C@@H](CCOC(=O)CCC(=O)O)C(=O)O` [O-SUCCINYL-L-HOMOSERINE], the LC retention time in data set [13] was 1.34 min; in [5] it was 0.92 min; in data set [6] it was 0.93 min; in data set [14], 0.9 min; in data set [7], 1.09 min; in data set [4] it was 2.74 min. Moreover, the LC retention time was 16.2 min in data set [1] and 1.83 min in data set [8].
For `CCCCCCCCCCCCCCCC(=O)O` [PALMITATE], the figures for the LC retention time in data set [10] and in data set [12] were 36.8 min and 33.8 min, respectively.
Turning to `CCCCCCC=CCCCCCCCC(=O)O` [PALMITOLEIC ACID], the LC retention time in [10] was 29.4 min.
On the same count and under the same terms, as for `NCCc1ccccc1` [PHENETHYLAMINE], the figure is 20.4 min.
As to `N[C@@H](CSCC(=O)O)C(=O)O` [S-CARBOXYMETHYL-L-CYSTEINE], the LC retention time in data set [1] is 14.8 min.
`C[Se]CCC(N)C(=O)O` (stereo unspecified) [SELENOMETHIONINE]: the LC retention time in data set [4] is 4.52 min.
On to `NCCCCNCCCN` [SPERMIDINE], for which the LC retention time in data set [1] was 41 min.
For the compound `CCCCCCCCC=CCCCCCCCC(=O)NC(COP(=O)([O-])OCC[N+](C)(C)C)C(O)C=CCCCCCCCCCCCCC` (stereo unspecified) [SPHINGOMYELIN (d36:2)], the LC retention time in data set [10] was 37.5 min; in data set [11], 28.7 min.
As to `Cc1ncc(C[n+]2csc(CCOP(=O)(O)O)c2C)c(N)n1` [THIAMINE MONOPHOSPHATE], the LC retention time in data set [10] is 3.87 min; in [6] it was 0.89 min; in data set [2], 1.42 min; in data set [1], 18 min; in [8], 1.78 min.
With `Cc1ncc(C[n+]2csc(CCO)c2C)c(N)n1` [THIAMINE], the LC retention time was 0.89 min in data set [6], 3.78 min in data set [2], 19.1 min in [1] and 1.78 min in [8].
Regarding `C=C1CCC(O)CC1=CC=C1CCCC2(C)C1CCC2C(C)C=CC(C)C(C)C` (stereo unspecified) [VITAMIN D2], in data set [10], the LC retention time is 33.6 min.
In the case of `O=c1[nH]c(=O)c2ncn(C3OC(CO)C(O)C3O)c2[nH]1` (stereo unspecified) [XANTHOSINE], the LC retention time in data set [12] was 11.9 min; in [3], 11.6 min.
